Key:
[1] = system: wild oat; assay: Test B postemergence herbicide test; format: in vivo, Avena fatua
Summary of the method: (§1)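 Each value is a visual 0–100 response rating taken against controls 13 to 15 days after treatment in the greenhouse. Plants received formulated chemical postemergence at the 1- to 4-leaf stage or, in flooded paddy, at the 2-leaf stage.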

[2] = system: corn; assay: Test B pre-/postemergence herbicide test; format: in vivo, Zea mays; conditions: for Corn plant response rating (0 to 100 scale) / Plant response rating, Corn: preemergence
Summary of the method: (§2)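 Plants compared with untreated controls 13–15 days post-treatment and given a visual 0–100 injury score. Applications: preemergence to seeds; postemergence at 1- to 4-leaf (2–18 cm); paddy species flooded, 2-leaf stage. Vehicle non-phytotoxic, surfactant included.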

[3] = system: velvetleaf; assay: Test B pre-/postemergence herbicide test; format: in vivo, Abutilon theophrasti
Summary of the method: as §2

[4] = system: barnyardgrass; assay: Test B flooded paddy test; format: in vivo, Echinochloa crus-galli; conditions: 1000 g ai/ha, scale 0 to 100 (0 no effect, 100 complete control)
Summary of the method: (§3)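 Scale 0–100: zero equals no visible effect, 100 complete control, judged by eye relative to controls. Timing: 13 to 15 days in greenhouse post-treatment. Growth stage at spraying: two leaves (paddy) or one to four leaves, 2–18 cm (postemergence).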

[5] = system: Surinam grass; assay: Test B pre-/postemergence herbicide test; format: in vivo, Urochloa decumbens
Summary of the method: as §2

[6] = system: pigweed; assay: Test B pre-/postemergence herbicide test; format: in vivo, Amaranthus retroflexus
Summary of the method: as §2

[7] = system: small flower umbrella sedge; assay: Test B flooded paddy test; format: in vivo, Cyperus difformis; conditions: 1000 g ai/ha, scale 0 to 100 (0 no effect, 100 complete control)
Summary of the method: as §3

[8] = system: wheat; assay: Test B postemergence herbicide test; format: in vivo, Triticum aestivum; design: key to Wheat plant response rating: 0 = no effect, 100 = complete control
Summary of the method: as §1

[9] = system: rice; assay: Test B flooded paddy test; format: in vivo, Oryza sativa; conditions: 1000 g ai/ha, scale 0 to 100 (0 no effect, 100 complete control)
Summary of the method: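 Formulated test chemicals went onto postemergence plants measuring 2 to 18 cm, at one to four leaves. For the paddy assay, species had reached two leaves. Scoring took place 13–15 days later by eye, relative to untreated plants, using 0 for no effect up to 100 for full control.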

[10] = system: cocklebur; assay: Test B pre-/postemergence herbicide test; format: in vivo, Xanthium strumarium
Summary of the method: (§4)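 Formulation: non-phytotoxic solvent mix with surfactant. Timing: preemergence on seed and postemergence on 2–18 cm plants, applied concurrently. Readout after 13–15 d greenhouse: visual 0–100 control rating against controls.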

[11] = system: large crabgrass; assay: Test B pre-/postemergence herbicide test; format: in vivo, Digitaria sanguinalis
Summary of the method: as §2

[12] = system: blackgrass; assay: Test B postemergence herbicide test; format: in vivo, Alopecurus myosuroides
Summary of the method: as §3

[13] = system: morningglory; assay: Test B pre-/postemergence herbicide test; format: in vivo, Ipomoea coccinea
Summary of the method: as §4

[14] = system: giant foxtail; assay: Test B pre-/postemergence herbicide test; format: in vivo, Setaria faberi
Summary of the method: as §2

[15] = system: lambsquarters; assay: Test B pre-/postemergence herbicide test; format: in vivo, Chenopodium album
Summary of the method: as §2

[16] = 125 g ai/ha; visual rating, scale 0 (no effect) to 100 (complete control); postemergence
[17] = postemergence, 500 g ai/ha; scale 0 to 100, 0 is no effect, 100 is complete control
[18] = 125 g ai/ha, 0 = no effect, 100 = complete control
[19] = 125 g ai/ha, visual rating, scale 0 (no effect) to 100 (complete control), postemergence
[20] = 500 g ai/ha, visual rating, 0 = no effect, 100 = complete control
[21] = postemergence, 500 g ai/ha, scale 0 to 100, 0 is no effect, 100 is complete control
[22] = 500 g ai/ha; visual rating, 0 = no effect, 100 = complete control; preemergence
[23] = 125 g ai/ha; 0 = no effect, 100 = complete control; preemergence
[24] = 125 g ai/ha, 0 = no effect, 100 = complete control, preemergence
[25] = 500 g ai/ha, visual rating, 0 = no effect, 100 = complete control, preemergence
[26] = Postemergence, 500 g ai/ha; visual rating after 13 to 15 days, scale 0 (no effect) to 100 (complete control)
[27] = postemergence, 125 g ai/ha; visual rating, scale 0 (no effect) to 100 (complete control)
[28] = Preemergence, 500 g ai/ha, scale 0 to 100
[29] = preemergence, 125 g ai/ha; 0 to 100 scale, 0 is no effect, 100 is complete control
[30] = Postemergence, 500 g ai/ha, visual rating after 13 to 15 days, scale 0 (no effect) to 100 (complete control)
[31] = postemergence, 125 g ai/ha, visual rating, scale 0 (no effect) to 100 (complete control)
[32] = preemergence, 125 g ai/ha, 0 to 100 scale, 0 is no effect, 100 is complete control

In the case of `CCN1N=C(C(C)(C)C)CC1C(=O)Nc1cc(C(=O)N2CCCC2)ccc1F` (racemic) [Compound 309], the “Oat, Wild plant response rating” value [1, 16] is reported as 20, the “Oat, Wild plant response rating” value [1, 17] is reported as 40 and the “Corn plant response rating (0 to 100 scale)” value [2, 18] is reported as 60. The “Corn plant response rating” value [2, 19] was 20, the “Plant response rating, Corn” value [2, 20] was 90 and the “Corn plant response rating” value [2, 21] was 60. The “Velvetleaf plant response rating” value [3, 16] was 20, the “Plant response rating, Velvetleaf” value [3, 22] was 100 and the “Velvetleaf plant response rating” value [3, 17] was 40. The “Barnyardgrass plant response rating” value [4] was 90, the “Surinam Grass plant response rating (0 to 100 scale)” value [5, 23] was 60 and the “Surinam Grass plant response rating” value [5, 16] was 10. For the same compound, the “Plant response rating, Surinam Grass” value [5, 22] was 100, the “Surinam Grass plant response rating” value [5, 17] was 40 and the “Pigweed plant response rating (0 to 100 scale)” value [6, 23] was 70. For the same compound, the “Pigweed plant response rating” value [6, 16] was 50, the “Plant response rating, Pigweed” value [6, 22] was 100 and the “Pigweed plant response rating” value [6, 17] was 70. For the same compound, the “Sedge, Umbrella plant response rating” value [7] was 80, the “Wheat plant response rating” value [8, 16] was 20 and the “Wheat plant response rating” value [8, 17] was 30. For the same compound, the “Rice plant response rating” value [9] was 80, the “Cocklebur plant response rating (0 to 100 scale)” value [10, 24] was 30 and the “Cocklebur plant response rating” value [10, 19] was 40. The “Plant response rating, Cocklebur” value [10, 25] was 80, the “Cocklebur plant response rating” value [10, 21] was 70 and the “Crabgrass, Large plant response rating (0 to 100 scale)” value [11, 24] was 60. The “Crabgrass, Large plant response rating” value [11, 19] was 0, the “Plant response rating, Crabgrass, Large” value [11, 25] was 100 and the “Crabgrass, Large plant response rating” value [11, 21] was 40. The “Blackgrass plant response rating” value [12, 16] was 10, the “Blackgrass plant response rating” value [12, 17] was 30 and the “Morningglory plant response rating (0 to 100 scale)” value [13, 23] was 0. For the same compound, the “Morningglory plant response rating” value [13, 16] was 0, the “Plant response rating, Morningglory” value [13, 22] was 0 and the “Morningglory plant response rating” value [13, 17] was 40. The “Foxtail, Giant plant response rating (0 to 100 scale)” value [14, 24] was 80, the “Foxtail, Giant plant response rating” value [14, 19] was 20 and the “Plant response rating, Foxtail, Giant” value [14, 25] was 100. The “Foxtail, Giant plant response rating” value [14, 21] was 40, the “Lambsquarters plant response rating (0 to 100 scale)” value [15, 23] was 90 and the “Lambsquarters plant response rating” value [15, 16] was 40. The “Plant response rating, Lambsquarters” value [15, 22] was 90 and the “Lambsquarters plant response rating” value [15, 17] was 80.
In the case of `CCOC(=O)c1cccc(NC(=O)c2cc(C(C)(C)C)nn2CCF)c1` [Compound 79], the “Plant response rating, Oat, Wild” value [1, 26] is reported as 30, the “Oat, Wild plant response rating” value [1, 27] is reported as 20 and the “Corn plant response rating” value [2, 28] is reported as 0. For the same compound, the “Plant response rating, Corn” value ([2]; 125 g ai/ha, 0 to 100 scale, 0 is no effect, 100 is complete control) was 0, the “Plant response rating, Velvetleaf” value [3, 26] was 80 and the “Velvetleaf plant response rating” value [3, 27] was 70. For the same compound, the “Plant response rating, Velvetleaf” value [3, 29] was 10, the “Barnyardgrass plant response rating” value ([4]; visual rating, 13 to 15 days) was 60 and the “Plant response rating, Surinam Grass” value [5, 26] was 40. The “Surinam Grass plant response rating” value [5, 27] was 30, the “Plant response rating, Surinam Grass” value [5, 29] was 0 and the “Plant response rating, Pigweed” value [6, 26] was 100. For the same compound, the “Pigweed plant response rating” value [6, 27] was 70, the “Plant response rating, Pigweed” value [6, 29] was 0 and the “Sedge, Umbrella plant response rating” value ([7]; visual rating, 13 to 15 days) was 90. The “Plant response rating, Wheat” value [8, 26] was 40, the “Wheat plant response rating” value [8, 27] was 30 and the “Rice plant response rating” value ([9]; visual rating, 13 to 15 days) was 70. For the same compound, the “Plant response rating, Cocklebur” value [10, 30] was 80, the “Cocklebur plant response rating” value [10, 28] was 0 and the “Cocklebur plant response rating” value [10, 31] was 80. For the same compound, the “Plant response rating, Cocklebur” value [10, 32] was 0, the “Plant response rating, Crabgrass, Large” value [11, 30] was 30 and the “Crabgrass, Large plant response rating” value [11, 28] was 0. For the same compound, the “Crabgrass, Large plant response rating” value [11, 31] was 20, the “Plant response rating, Crabgrass, Large” value [11, 32] was 0 and the “Plant response rating, Blackgrass” value [12, 26] was 30. The “Blackgrass plant response rating” value [12, 27] was 20, the “Plant response rating, Morningglory” value [13, 29] was 0 and the “Plant response rating, Foxtail, Giant” value [14, 30] was 40. For the same compound, the “Foxtail, Giant plant response rating” value [14, 28] was 10, the “Foxtail, Giant plant response rating” value [14, 31] was 30 and the “Plant response rating, Foxtail, Giant” value [14, 32] was 10. For the same compound, the “Plant response rating, Lambsquarters” value [15, 26] was 80, the “Lambsquarters plant response rating” value [15, 27] was 70 and the “Plant response rating, Lambsquarters” value [15, 29] was 0.
`CCn1nc(C(C)(C)C)cc1C(=O)Nc1cccc(OC(F)(F)F)c1` [Compound 272] was tested, and the “Oat, Wild plant response rating” value [1, 27] was 60, the “Oat, Wild plant response rating” value [1, 17] was 90 and the “Corn plant response rating (0 to 100 scale)” value [2, 18] was 0. The “Plant response rating, Corn” value [2, 20] was 10, the “Corn plant response rating” value [2, 31] was 30 and the “Corn plant response rating” value [2, 21] was 40. For the same compound, the “Velvetleaf plant response rating (0 to 100 scale)” value [3, 23] was 10, the “Plant response rating, Velvetleaf” value [3, 22] was 50 and the “Velvetleaf plant response rating” value [3, 27] was 50. The “Velvetleaf plant response rating” value [3, 17] was 100, the “Barnyardgrass plant response rating” value [4] was 50 and the “Surinam Grass plant response rating (0 to 100 scale)” value [5, 23] was 10. For the same compound, the “Plant response rating, Surinam Grass” value [5, 22] was 70, the “Surinam Grass plant response rating” value [5, 27] was 10 and the “Surinam Grass plant response rating” value [5, 17] was 60. For the same compound, the “Pigweed plant response rating (0 to 100 scale)” value [6, 23] was 90, the “Plant response rating, Pigweed” value [6, 22] was 100 and the “Pigweed plant response rating” value [6, 27] was 100. For the same compound, the “Pigweed plant response rating” value [6, 17] was 100, the “Sedge, Umbrella plant response rating” value [7] was 80 and the “Wheat plant response rating” value [8, 27] was 20. For the same compound, the “Wheat plant response rating” value [8, 17] was 30, the “Rice plant response rating” value [9] was 40 and the “Cocklebur plant response rating (0 to 100 scale)” value [10, 24] was 0. The “Plant response rating, Cocklebur” value [10, 25] was 0, the “Cocklebur plant response rating” value [10, 31] was 40 and the “Cocklebur plant response rating” value [10, 21] was 90. The “Crabgrass, Large plant response rating (0 to 100 scale)” value [11, 24] was 80, the “Plant response rating, Crabgrass, Large” value [11, 25] was 100 and the “Crabgrass, Large plant response rating” value [11, 31] was 10. The “Crabgrass, Large plant response rating” value [11, 21] was 70, the “Blackgrass plant response rating” value [12, 27] was 60 and the “Blackgrass plant response rating” value [12, 17] was 100. For the same compound, the “Morningglory plant response rating (0 to 100 scale)” value [13, 23] was 0, the “Plant response rating, Morningglory” value [13, 22] was 30 and the “Morningglory plant response rating” value [13, 27] was 90. The “Morningglory plant response rating” value [13, 17] was 100, the “Foxtail, Giant plant response rating (0 to 100 scale)” value [14, 24] was 30 and the “Plant response rating, Foxtail, Giant” value [14, 25] was 90. The “Foxtail, Giant plant response rating” value [14, 31] was 10, the “Foxtail, Giant plant response rating” value [14, 21] was 30 and the “Lambsquarters plant response rating (0 to 100 scale)” value [15, 23] was 100. For the same compound, the “Plant response rating, Lambsquarters” value [15, 22] was 100, the “Lambsquarters plant response rating” value [15, 27] was 100 and the “Lambsquarters plant response rating” value [15, 17] was 100.

Source: patent publication US20060069132A1, “Azolecarboxamide herbicides” (priority 2004, published 2006)
